From patent US11052092B2, “N-{[2-(piperidin-1-yl)phenyl](phenyl)methyl}-2-(3-oxo-3,4-dihydro-2H-1,4-benzoxazin-7-yl)acetamide derivatives and related compounds as ROR-gamma modulators for treating autoimmune diseases” (Genfit, priority 2017, dated 2021)
Several values for one entry are separate records, joined by “and”; a condition that tells them apart may be missing. Equal values may be shown once.

Columns and labels:
human RORγt = biological target: T1, human RORγt (Homo sapiens, UniProt P51449); assay: RORE Luciferase/RORγt transactivation assay; assay type: cell-based; details: COS-7 cells transfected with human IL-17 promoter luciferase reporter and RORγt plasmid; 20 h with compound; read-out: IC50, RORγt activity inhibition
T1 construct: the full-length cDNA of human RORγt; expressed in transfected cells; host or cells: COS-7 (monkey kidney)
T1 sequence (P51449 1-497 isoform P51449-2): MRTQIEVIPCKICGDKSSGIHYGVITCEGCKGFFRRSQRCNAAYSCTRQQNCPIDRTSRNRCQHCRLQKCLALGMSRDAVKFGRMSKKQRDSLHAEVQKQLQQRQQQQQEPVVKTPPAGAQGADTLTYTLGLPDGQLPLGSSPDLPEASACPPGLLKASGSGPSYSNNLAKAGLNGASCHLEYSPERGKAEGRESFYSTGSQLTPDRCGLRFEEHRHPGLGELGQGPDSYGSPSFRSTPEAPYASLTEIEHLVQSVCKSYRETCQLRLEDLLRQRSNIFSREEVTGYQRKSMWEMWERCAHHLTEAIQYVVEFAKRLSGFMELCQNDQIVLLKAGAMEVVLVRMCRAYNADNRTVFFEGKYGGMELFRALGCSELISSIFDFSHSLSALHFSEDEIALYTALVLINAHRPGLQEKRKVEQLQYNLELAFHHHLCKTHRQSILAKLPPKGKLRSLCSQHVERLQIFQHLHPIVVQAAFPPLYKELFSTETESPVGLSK
Summary of the method: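 COS-7 cells were transiently co-transfected with a human IL-17 promoter (RORE/CNS)–luciferase reporter and a RORγt expression plasmid, then seeded at 10000 cells/well in serum-free, phenol red-free DMEM. Compounds were added at 0.3% DMSO final. Luciferase was read with Steady-Glo, and IC50 and Emax were derived.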

[1] = biological target: T2, RORγt ligand-binding domain (RORγt-LBD) (Homo sapiens, UniProt P51449); assay: Time-resolved FRET (TR-FRET) RORγt coactivator assay; details: GST-RORγ-LBD, biotinylated RIP140 peptide, 2 hours at room temperature
T2 construct: 20 nM recombinantly expressed RORγ-LBD fused to GST
T2 sequence (P51449 269-508 limits assumed): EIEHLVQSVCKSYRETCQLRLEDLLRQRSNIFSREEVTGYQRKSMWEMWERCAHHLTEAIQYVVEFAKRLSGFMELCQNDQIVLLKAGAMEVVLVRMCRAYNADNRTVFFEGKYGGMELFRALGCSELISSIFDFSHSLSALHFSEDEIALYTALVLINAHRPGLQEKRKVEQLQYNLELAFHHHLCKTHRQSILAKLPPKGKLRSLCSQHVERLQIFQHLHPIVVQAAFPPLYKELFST
Source text: Time-resolved FRET (TR-FRET) RORγt coactivator assay was used to identify RORγ modulator compounds with ligand-dependent coactivator displacement. The assay uses a d2-labeled anti-GST antibody, synthetic N-terminally biotinylated peptide which is derived from nuclear receptor coactivator protein RIP140, and a RORγt ligand-binding domain (RORγt-LBD) that is tagged with glutathione-S-transferase (GST). The influence of compounds on the RORγ-peptide interaction relies on the binding dependent energy transfer from a donor to an acceptor fluorophor attached to the binding partner of interest. […] For reduction of background from compound fluorescence, TR-FRET method makes use of generic fluorophore labels and time resolved detection.
The assays were done in a final volume of 20 μl in a 384 well plate in a CHAPS buffer (2 mM CHAPS; 1 mM DTT, 2 mM EDTA; 0.1% BSA), containing 20 nM recombinantly expressed RORγ-LBD fused to GST, 30 nM N-terminally biotinylated peptide, 1 nM streptavidin-terbium conjugate and 20 nM d2 labeled-anti-GST. Test compounds were diluted using 10 mM stock solution. The range of the final compound concentrations used in this test was from 0.3 nM to 30 μM (logarithmic scale). DMSO content of the samples was kept at 1%. The assay was equilibrated for 2 hours in the dark at room temperature in 384 well plates (Falcon). The signal was detected by an Ultra384 reader (TECAN). […] Compounds that promote coactivator displacement induce a concentration-dependent decrease in time-resolved fluorescent signal. Data were collected and analyzed using GraphPad Prism software (GraphPad Software V5.02, San Diego Calif. USA). IC50 in μM and Emax in % were reported for each compound.

[2] = tested on: Murine EL-4 lymphoma cell line overexpressing human RORγt; assay: IL-17 secretion from EL4 murine lymphoma; assay type: cell-based; details: Mus musculus; human RORγt-transfected EL4 cells, PMA (10 ng/mL) and ionomycin (1 μM), 24 h; read-out: IC50, IL-17 secretion inhibition
Summary of the method: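 EL-4 cells electroporated with hRORγt plasmid, seeded at 150000 cells/well and pretreated with compound for 24 h, then stimulated with PMA (10 ng/mL) plus ionomycin (1 μM final) with compound for a further 24 h at 37 °C. IL-17 in supernatant measured by HTRF or ELISA.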

Structure (SMILES) | IC50 (human RORγt) | IC50 [1] [nM] | IC50 [2] [nM] | melting point [°C]
Cc1ccc(C(NC(=O)Cc2ccc3c(c2)OCC(=O)N3)c2ccccc2)c(N2CCCCC2)c1 (stereo not drawn) [Cpd. 1, N-{[4-methyl-2-(piperidin-1-yl)phenyl](phenyl)methyl}-2-(3-oxo-3,4-dihydro-2H-1,4-benzoxazin-7-yl)acetamide] | 100 to 1000 nM | 100 to 1000 | 100 to 1000 | 
Cc1ccc(C(NC(=O)Cc2ccc3c(c2)OCC(=O)N3)c2ccccc2)c(N2CCOCC2)c1 (stereo not drawn) [Cpd. 2, N-{[4-methyl-2-(morpholin-4-yl)phenyl](phenyl)methyl}-2-(3-oxo-3,4-dihydro-2H-1,4-benzoxazin-7-yl)acetamide] | 1000 to 10000 nM | 10 to 100 | > 10000 | 
O=C1COc2cc(CC(=O)NC(c3ccccc3)c3ccccc3N3CCCCC3)ccc2N1 (stereo not drawn) [Cpd. 3, 2-(3-oxo-3,4-dihydro-2H-1,4-benzoxazin-7-yl)-N-{phenyl[2-(piperidin-1-yl)phenyl]methyl}acetamide] | 1000 to 10000 nM | 100 to 1000 | 1000 to 10000 | 
COc1ccc(C(NC(=O)Cc2ccc3c(c2)OCC(=O)N3)c2ccccc2)c(N2CCCCC2)c1 (stereo not drawn) [Cpd. 4, N-{[4-methoxy-2-(piperidin-1-yl)phenyl](phenyl)methyl}-2-(3-oxo-3,4-dihydro-2H-1,4-benzoxazin-7-yl)acetamide] | 100 to 1000 nM | 10 to 100 | 100 to 1000 | 
O=C1COc2cc(CC(=O)NC(c3ccccc3)c3ccccc3N3CCCC3)ccc2N1 (stereo not drawn) [Cpd. 5, 2-(3-oxo-3,4-dihydro-2H-1,4-benzoxazin-7-yl)-N-{phenyl[2-(pyrrolidin-1-yl)phenyl]methyl}acetamide] | 1000 to 10000 nM | 10 to 100 | > 10000 | 
Cc1ccc(C(NC(=O)Cc2ccc3[nH]c(=O)cc(C)c3c2)c2ccccc2)c(N2CCCCC2)c1 (stereo not drawn) [Cpd. 11, N-{[4-methyl-2-(piperidin-1-yl)phenyl](phenyl)methyl}-2-(4-methyl-2-oxo-1,2-dihydroquinolin-6-yl)acetamide] | 1000 to 10000 nM | 100 to 1000 | 1000 to 10000 | 
Cc1ccc(C(NC(=O)Cc2ccc3c(c2)CC(=O)N3)c2ccccc2)c(N2CCCCC2)c1 (stereo not drawn) [Cpd. 16, N-{[4-methyl-2-(piperidin-1-yl)phenyl](phenyl)methyl}-2-(2-oxo-2,3-dihydro-1H-indol-5-yl)acetamide] | 100 to 1000 nM and 10 to 100 nM | 10 to 100 | 100 to 1000 | 
Cc1ccc(C(NC(=O)Cc2ccc3c(c2)C(=O)C(=O)N3)c2ccc(C)o2)c(N2CCCCC2)c1 (stereo not drawn) [Cpd. 23, 2-(2,3-dioxo-2,3-dihydro-1H-indol-5-yl)-N-{[4-methyl-2-(piperidin-1-yl)phenyl](5-methylfuran-2-yl)methyl}acetamide] | 100 to 1000 nM | 100 to 1000 | 100 to 1000 | 
CCc1ccc(C(NC(=O)Cc2ccc3c(c2)OCC(=O)N3)c2ccc(C)cc2C)o1 (stereo not drawn) [Cpd. 32, N-[(2,4-dimethylphenyl)(5-ethylfuran-2-yl)methyl]-2-(3-oxo-3,4-dihydro-2H-1,4-benzoxazin-7-yl)acetamide] | 100 to 1000 nM | 1000 to 10000 |  | 
COc1ccc(C(NC(=O)Cc2ccc3c(c2)OCC(=O)N3)c2ccc(C)o2)c(Br)c1 (stereo not drawn) [Cpd. 34, N-[(2-bromo-4-methoxyphenyl)(5-methylfuran-2-yl)methyl]-2-(3-oxo-3,4-dihydro-2H-1,4-benzoxazin-7-yl)acetamide] | 100 to 1000 nM | 100 to 1000 |  | 
Cc1ccc(C(NC(=O)Cc2ccc3c(c2)C(C)(C)C(=O)N3C)c2ccc(C)o2)c(N2CCCCC2)c1 (stereo not drawn) [Cpd. 40, N-{[4-methyl-2-(piperidin-1-yl)phenyl](5-methylfuran-2-yl)methyl}-2-(1,3,3-trimethyl-2-oxo-2,3-dihydro-1H-indol-5-yl)acetamide] | 100 to 1000 nM | 100 to 1000 |  | 
Cc1ccc(C(NC(=O)Cc2ccc3c(c2)C(=Cc2c(C)noc2C)C(=O)N3)c2ccc(C)o2)c(N2CCCCC2)c1 (stereo not drawn) [Cpd. 43, 2-{3-[(dimethyl-1,2-oxazol-4-yl)methylidene]-2-oxo-2,3-dihydro-1H-indol-5-yl}-N-{[4-methyl-2-(piperidin-1-yl)phenyl](5-methylfuran-2-yl)methyl}acetamide] | 100 to 1000 nM | 100 to 1000 |  | 
Cc1ccc(C(NC(=O)Cc2ccc3c(c2)C(=O)C(=O)N3C)c2ccc(C)o2)c(N2CCCCC2)c1 (stereo not drawn) [Cpd. 45, 2-(1-methyl-2,3-dioxo-2,3-dihydro-1H-indol-5-yl)-N-{[4-methyl-2-(piperidin-1-yl)phenyl](5-methylfuran-2-yl)methyl}acetamide] | 100 to 1000 nM | 100 to 1000 |  | 

Second part, the compound after the results:

IC50 (human RORγt) | IC50 [1] [nM] | IC50 [2] [nM] | melting point [°C] | Structure (SMILES)
100 to 1000 nM | 100 to 1000 |  | 91 | Cc1ccc(C(NC(=O)Cc2ccc3c(c2)/C(=C\C(C)C)C(=O)N3)c2ccc(C)o2)c(N2CCCCC2)c1 (stereo not drawn) [Cpd. 48, N-{[4-methyl-2-(piperidin-1-yl)phenyl](5-methylfuran-2-yl)methyl}-2-[(3E)-3-(2-methylpropylidene)-2-oxo-2,3-dihydro-1H-indol-5-yl]acetamide]
100 to 1000 nM | 1000 to 10000 |  |  | Cc1ccc(C(NC(=O)Cc2cccc3c2CN(S(C)(=O)=O)C3)c2ccc(C)o2)c(N2CCCCC2)c1 (stereo not drawn) [Cpd. 50, 2-(2-methanesulfonyl-2,3-dihydro-1H-isoindol-4-yl)-N-{[4-methyl-2-(piperidin-1-yl)phenyl](5-methylfuran-2-yl)methyl}acetamide]
10 to 100 nM | < 10 |  |  | Cc1ccc(C(NC(=O)C2(c3ccc4c(c3)CS(=O)(=O)N4)CC2)c2ccc(C)o2)c(C)c1 (stereo not drawn) [Cpd. 63, N-[(2,4-dimethylphenyl)(5-methylfuran-2-yl)methyl]-1-(2,2-dioxo-1,3-dihydro-2,1-benzothiazol-5-yl)cyclopropane-1-carboxamide]
100 to 1000 nM | 10 to 100 |  |  | Cc1ccc(C(NC(=O)Cc2ccc3c(ccn3CCC(=O)OC(C)(C)C)c2)c2ccc(C)o2)c(C)c1 (stereo not drawn) [Cpd. 99, tert-butyl 3-[5-({[(2,4-dimethylphenyl)(5-methylfuran-2-yl)methyl]carbamoyl}methyl)-1H-indol-1-yl]propanoate]
100 to 1000 nM | 100 to 1000 |  |  | Cc1ccc(C(NC(=O)Cc2ccc3c(ccn3CCC(=O)OC(C)(C)C)c2)c2ccc(C)o2)c(Br)c1 (stereo not drawn) [Cpd. 100, tert-butyl 3-[5-({[(2-bromo-4-methylphenyl)(5-methylfuran-2-yl)methyl]carbamoyl}methyl)-1H-indol-1-yl]propanoate]
100 to 1000 nM | 10 to 100 |  | 65 | Cc1ccc(C(NC(=O)Cc2ccc3c(ccn3CCC(=O)O)c2)c2ccc(C)o2)c(C)c1 (stereo not drawn) [Cpd. 101, 3-[5-({[(2,4-dimethylphenyl)(5-methylfuran-2-yl)methyl]carbamoyl}methyl)-1H-indol-1-yl]propanoic acid]
100 to 1000 nM | 10 to 100 |  | 70 | Cc1ccc(C(NC(=O)Cc2ccc3c(ccn3CCC(=O)O)c2)c2ccc(C)o2)c(Br)c1 (stereo not drawn) [Cpd. 102, 3-[5-({[(2-bromo-4-methylphenyl)(5-methylfuran-2-yl)methyl]carbamoyl}methyl)-1H-indol-1-yl]propanoic acid]
